{"source": "patent US12145920B2", "about": "“Lanthionine c-like protein 2 ligands, cells prepared therewith, and therapies using same” (NImmune Biopharma, Inc., priority 2019, dated 2024)", "key": {"MDR1a-/- mice": {"system": "MDR1a-/- mice", "test": "MDR1a-/- chronic model of IBD", "type": "in vivo", "experimental": "MDR1a−/− model. Mice deficient in MDR1a spontaneously develop colitis. MDR1a−/− began receiving BT-63 treatment (oral, 20 mg/kg) at 6 weeks of age and continued treatment until 10 weeks of age. Mice were weighed and scored weekly. Treatment administration. BT-63 was prepared within a 0.5% methylcellulose (12-15 cP) solution. Dosage used was 20 mg/kg delivered once daily. Mice were weighed on a weekly basis to update dosage formulation. Dosage was calculated based off mean body weights for each gender. Oral dosage was delivered by orogastric gavage of dosage in 0.2 mL volume. Flow Cytometry. […]\ncollagenase (300U/mL) and DNase (50U/mL) for digestion. Tissues were digested for 60 minutes under stirring at 37° C. Resultant cellular suspensions were filtered through 100 μm strainers, centrifuged (300×g, 8 min), and washed in fresh RPMI. Following filtration of the resulting single cell suspensions, immune cells were purified by Percoll gradient of cell-containing 40% Percoll overlayed onto 70% Percoll solution. After centrifugation, interphase was collected and washed to obtain enriched colonic lamina propria cell fractions. Cells were labeled with mixtures of extracellular (CD45, CD3, CD4, CD8, CD19, NK1.1, CD25, F4/80, CD11b, Gr1, CX3CR1, CD64) and intracellular (Tbet, RORyT, FOXP3, IFNγ, IL17, IL10) antibodies in a sequential live staining in 96-well plates. Data was acquired using a FACS Celesta flow cytometer with FACSDiva software."}, "influenza A (H1N1)": {"system": "influenza A (H1N1)", "test": "Mouse model of influenza A virus infection", "type": "in vivo, C57BL/6 mice", "experimental": "Mouse model. Eight- to ten-week old wild type C57BL/6 mice were anesthetized by isoflurane inhalation. Mice were infected with influenza A (H1N1) intranasally at a challenge titer of 350 pfu/mouse. Mice were treated daily with BT-63 at a dose of 20 mg/kg orally via gavage. Mice were weighed and scored daily over 12 days. Mice were euthanized at days 12 to measure immune responses by flow cytometry in the lungs.\nFlow Cytometry. Lungs will be chopped into small pieces and collected into RPMI/FBS/CaCl2 buffer containing collagenase (300 U/mL) and DNase (50 U/mL) for digestion. Tissues will be digested for 60 to 90 minutes under stirring at 37° C. Resultant cellular suspensions will be filtered through 100 μm strainers, centrifuged (300×g, 8 min), and washed in fresh RPMI. Red blood cells will be lysed by hypotonic lysis and removed by filtration. Cells will be washed and plated for flow cytometry staining. Cells will be labeled with mixtures of extracellular (CD45, CD3, CD4, CD8, CD19, NK1.1, CD25, F4/80, CD11b, CD11c, Gr1, CX3CR1, CD64, SiglecF, Ly6C) and intracellular (Tbet, RORγT, FOXP3, IFNγ, IL6, IL10, IFNb) antibodies in a sequential live staining in 96-well plates. Data will be acquired using a FACS Celesta flow cytometer with FACSDiva software."}, "Naïve CD4+ T cells": {"system": "Naïve CD4+ T cells", "test": "In vitro Treg differentiation of naive CD4+ T cells with BT-63", "type": "cell-based, mice", "experimental": "Naïve CD4+ T cells can be isolated from the spleens of mice by magnetic sorting. The isolated cells can be incubated in anti-CD^3/anti-CD28 coated 96 well plates in Treg differentiation media. The Treg differentiation media can be Iscove's Modified Dulbecco's Medium (IMDM) media (ThermoFisher Scientific) supplemented with fetal bovine serum, HEPES, penicillin/streptomycin, L-glutamine, and differentiation agents. The Treg differentiation agents can be 10 nM all-trans-retinoic acid and 5 ng/mL TGF-β. Additional experiments can be conducted comparing differentiation in the Treg differentiation media with and without the addition of 10 ng/mL IL-2 or IL-12. Cells can be incubated with vehicle, 10 nM, or 100 nM BT-63 in differentiation media for 48 hours prior to assay. Prior to assay, cells can be stimulated with PMA and ionomycin for 6 hours.\nColonic lamina propria lymphocytes and cultured cells can be plated in 96 well plates (6×10^5 cells/well) and processed for immunophenotyping by flow cytometry as previously described. Briefly, cells can be incubated with fluorochrome conjugated antibodies to extracellular markers: CD45, CD4, CD3, CD25, CD8. Samples needing a secondary staining can be incubated with secondary antibodies, or streptavidin-conjugated fluorochrome. The samples can then be fixed and permeabilized. Cells can be incubated with antibodies to intracellular markers: Tbet, IFNγ, IL10, FOXP3, IL17, RORγT. Data can be acquired with a BD FACS Celesta flow cytometer and analyzed using FACS Diva software (BD Pharmingen)."}, "NZB/W F1 mice": {"system": "NZB/W F1 mice", "test": "NZB/W F1 genetic mouse model of SLE (BT-63)", "type": "in vivo", "experimental": "NZB/W F 1 model. Twenty-four-week-old, female NZB/W F1 mice were randomized into vehicle or BT-63-treated arms based on baseline urine protein levels (n=10). BT-63 was orally administered daily at 20 mg/kg for 12 weeks. Mice were weighed on a weekly basis to update dosage formulation. Dosage was calculated based off mean body weights.\nImmunological analysis. Blood was collected by cardiac puncture into EDTA tube. Plasma was separated following centrifugation and assayed by ELISA for anti-dsDNA antibodies and IFN-α. Urine was collected to assay for protein content to test for kidney function. Spleens were excised, crushed and filtered to provide a cellular suspension. Red blood cells were lysed. Cells were labeled with mixtures of extracellular (CD45, CD3, CD4, CD8, CD19, CD138, CD25, MHCII, CD11b, CD11c, CXCR3, IgD, IgM) and intracellular (BCL6, FOXP3, IL21, IL6, IL10) antibodies in a sequential live staining in 96-well plates in preparation for flow cytometry. Data was captured on a BD FACS Celesta and analyzed using FacsDiva."}, "[1]": {"details": "colonic lamina propria, four weeks oral 20 mg/kg"}, "[2]": {"details": "spleen, four weeks oral 20 mg/kg"}, "[3]": {"details": "lung, day 12 post-infection, 20 mg/kg"}, "[4]": {"details": "lungs, day 12 post-infection, 20 mg/kg"}, "[5]": {"details": "36 weeks of age (12 weeks of treatment), 20 mg/kg"}, "[6]": {"details": "spleen, 12 weeks oral 20 mg/kg, relative to vehicle"}}}
{"smiles": "O=C(CN1CCN(C(=O)c2cccc(-c3nc4ccccc4[nH]3)n2)CC1)c1ccccc1", "note": "[BT-63, 2-(4-(6-(1H-benzo[d]imidazol-2-yl)picolinoyl)piperazin-1-yl)-1-phenylethanone]", "values": [{"measurement": "proportions of regulatory CD4+ CD25+ T cells", "setting": "MDR1a-/- mice; colon, four weeks oral 20 mg/kg", "value": "increased"}, {"measurement": "proportions of Th1", "setting": "MDR1a-/- mice; [1]", "value": "reduces"}, {"measurement": "proportions of Th17", "setting": "MDR1a-/- mice; [1]", "value": "reduces"}, {"measurement": "proportions of neutrophils", "setting": "MDR1a-/- mice; [1]", "value": "reduces"}, {"measurement": "splenic CD25+ Tregs", "setting": "MDR1a-/- mice; [2]", "value": "increased"}, {"measurement": "splenic Th1 cells", "setting": "MDR1a-/- mice; [2]", "value": "decreased"}, {"measurement": "maximal observed reduction of disease activity", "setting": "MDR1a-/- mice; week four of treatment, oral 20 mg/kg", "value": 90, "unit": "%"}, {"measurement": "increase in survival compared to vehicle", "setting": "influenza A (H1N1); 12 days post-infection, 20 mg/kg oral daily", "value": "over 50%"}, {"measurement": "disease activity index", "setting": "influenza A (H1N1); day 3 through day 12 post-infection, 20 mg/kg oral vs vehicle", "value": "significantly reduces"}, {"measurement": "IL10+ CD8+ T cells", "setting": "influenza A (H1N1); [3]", "value": "increases"}, {"measurement": "alveolar macrophages", "setting": "influenza A (H1N1); [3]", "value": "increases"}, {"measurement": "proportions of TNFa+ CD4+ T cells", "setting": "influenza A (H1N1); [4]", "value": "decreased"}, {"measurement": "proportions of neutrophils", "setting": "influenza A (H1N1); [4]", "value": "decreased"}, {"measurement": "establishment of a CD25+ FOXP3+ subtype", "setting": "Naïve CD4+ T cells; 100 nM, absence of IL-2", "value": "significantly increase"}, {"measurement": "CD25+ FOXP3+ cells", "setting": "Naïve CD4+ T cells; IL-12-treated samples", "value": "significantly higher levels"}, {"measurement": "mixed CD25+ Tbet+ subtype", "setting": "Naïve CD4+ T cells; Treg differentiation with or without IL-2", "value": "not be statistically altered"}, {"measurement": "CD25+ Tbet+ cells", "setting": "Naïve CD4+ T cells; addition of IL-12", "value": "dose-dependent protection"}, {"measurement": "STAT5a phosphorylation", "setting": "Naïve CD4+ T cells; base Treg differentiation media, also with IL-2 or IL-12", "value": "phosphorylated in a greater ratio"}, {"measurement": "FOXO1 phosphorylation", "setting": "Naïve CD4+ T cells; base media and media containing IL-2, not IL-12", "value": "similarly be affected"}, {"measurement": "CD25+ FOXP3+ cells", "setting": "Naïve CD4+ T cells; concentrations as low as 10 nM, presence of IL-2", "value": "significantly more"}, {"measurement": "body weight change from baseline (weight loss)", "setting": "NZB/W F1 mice; 12 weeks oral 20 mg/kg", "value": "protected mice from weight loss"}, {"measurement": "proteinuria score", "setting": "NZB/W F1 mice; 12 weeks oral 20 mg/kg, from baseline", "value": "prevented worsening"}, {"measurement": "plasma IFN-α levels", "setting": "NZB/W F1 mice; [5]", "value": "reduced"}, {"measurement": "plasma anti-dsDNA levels", "setting": "NZB/W F1 mice; [5]", "value": "reduced"}, {"measurement": "CXCR3+ plasma cells", "setting": "NZB/W F1 mice; spleen, 12 weeks oral 20 mg/kg", "value": "moderate reduction"}, {"measurement": "follicular B cells", "setting": "NZB/W F1 mice; spleen, 12 weeks oral 20 mg/kg", "value": "moderate reduction"}, {"measurement": "plasma cells", "setting": "NZB/W F1 mice; spleen, 12 weeks oral 20 mg/kg", "value": "moderate reduction"}, {"measurement": "CD25+ FOXP3+ regulatory CD4+ T cells", "setting": "NZB/W F1 mice; [6]", "value": "greater reductions"}, {"measurement": "IL6+ myeloid cells", "setting": "NZB/W F1 mice; [6]", "value": "greater reductions"}, {"measurement": "IL21+ BCL6+ follicular helper T cells", "setting": "NZB/W F1 mice; [6]", "value": "greater reductions"}]}
